Consider three compounds from US9782364B1, “Curcumin-based compositions and methods of use thereof” (priority 2015, dated 2017).

One assay addresses T1, MSK1 (Mus musculus, UniProt Q8C050).
T1 construct: the cells were lysed and the cytoplasmic and nuclear protein fractions were collected; endogenous in cells; host or cells: BV2 microglia, LPS-induced
Nature of the assay: Western blot of cytoplasmic and nuclear MSK1 and phospho-serine 376 MSK1 in LPS-induced BV2 microglia. The note with it: BV2 cells, 22.0 μg/ml, 30 min pre-treatment then LPS 30 min. In kind it is cell-based. Here is the method: (§1) Western blot analysis was performed in multiple varying formats before optimization was achieved. The BV2 microglia cell line was cultured in Dulbecco's Modified Eagle's Medium (DMEM)—complete medium. The complete medium consisted of DMEM, 1% Ampicillin, and 10% Fetal Bovine Serum (FBS). BV2 microglia cells, at a cell count of approximately 2×10^6, were seeded in each well (6 wells per plate) with 2.0 ml complete medium and cultured overnight in a ThermaForma HepaFilter Series II Coe Incubator at 37° Celsius. Upon establishing confluence, subconfluent cells were washed out and the wells were prepared with drug pre-treatment after overnight incubation.
(§2) The test drugs (curcuminoids) were procured as follows: curcumin I research standard (03926) (ChromaDex Irvine, Calif. USA) (97.7% purity); curcumin II research standard (04230) (ChromaDex Irvine, Calif. USA) (97.3%); curcumin III research standard (B6938) (Sigma-Aldrich St. Louis, Mo., USA) (97.7% purity); curcumin extract (curcumin I—77.7%, curcumin II—16.9%, curcumin III—0.9%) research standard (03928) (ChromaDex Irvine, Calif. USA) (95.3% purity); and Lipopolysaccharide (LPS) from E. Coli (L2630) (Sigma-Aldrich St. Louis, Mo., USA).
Curcuminoids are not soluble in aqueous medium due to their hydrophobic characteristic. However, curcuminoid extracts are soluble in polar organic solvents, such as DMSO and acetone. In this Example, each curcuminoid preparation was first dissolved in DMSO. DMSO was used in the drug preparation at 0.2%. The drug/DMSO solution was subsequently dissolved in DMEM to achieve a final drug concentration for each curcuminoid preparation tested—22.0 μg/ml curcuminoid. […]
Total protein concentration for each fraction was determined using a Bio Rad Protein Assay that is based on the Bradford Assay (dye-binding method). […]
The targets analyzed in the Western Blot included NFkB-p65 and its nucleocytoplasmic translocation, as well as kinases (including MSK1) and their covalent modifications upstream of and involved in the regulation of NFkB. […]

A further assay deals with NFkB-p65. The assay can be described thus: Western blot of cytoplasmic and nuclear NFkB-p65 and phospho-serine 276 NFkB-p65 in LPS-induced BV2 microglia. The note with it: BV2 cells, 22.0 μg/ml, 30 min pre-treatment then LPS 30 min; for inhibition of NFkB-p65 nucleotranslocation (cytosolic and nuclear NFkB-p65 levels): FIGS. 3 and 4; for inhibition of NFkB-p65 serine 276 phosphorylation: cytoplasmic and nuclear, FIGS. 5 and 6. In kind it is cell-based. The method, then: as §1, §2
Curcuminoids are not soluble in aqueous medium due to their hydrophobic characteristic. However, curcuminoid extracts are soluble in polar organic solvents, such as DMSO and acetone. In this Example, each curcuminoid preparation was first dissolved in DMSO. DMSO was used in the drug preparation at 0.2%. The drug/DMSO solution was subsequently dissolved in DMEM to achieve a final drug concentration for each curcuminoid preparation tested—22.0 μg/ml curcuminoid. The DMEM/drug solution was used to replace the culture DMEM well medium and incubated for 30 minutes at 37-degrees Celsius in a ThermaForma incubator. At 31 minutes, lipopolysaccharide (LPS at […] final well concentration) induction of the cells was executed, except for the DMSO-only well to stimulate cell response amidst drug pre-treatment and without drug treatment.
The plates were then incubated for another 30 minutes after LPS stimulation. Upon removal from incubation, the cell medium was carefully removed and cells were washed, scraped, and collected with phosphate-buffered saline (PBS). Using a ThermoFisher Scientific NE-PER Nuclear and Cytoplasmic Extraction Kit (obtained from ThermoFisher Scientific Burlington, Ontario Canada), the cells were lysed and the cytoplasmic and nuclear protein fractions were collected and separated with the intention of probing each fraction for subcellular changes in cytoplasmic and nuclear proteins (as described further below).
Total protein concentration for each fraction was determined using a Bio Rad Protein Assay that is based on the Bradford Assay (dye-binding method). The total protein concentration determination was made prior to test sample preparation for gel electrophoresis execution (described below). The protein concentration colorimetric assay kit was purchased from Bio Rad Laboratories Canada Ltd. (Montreal, Quebec Canada). Each test sample was then prepared for loading and subjected to gel electrophoresis (SDS-PAGE) using a BioRad stain free gel system (Catalog No. 161-0181) and subsequently transferred/blotted to a nitrocellulose membrane (ThermoFisher Scientific Product No. 88018), blocked, and prepared for primary antibody treatment for each target.
The targets analyzed in the Western Blot included NFkB-p65 and its nucleocytoplasmic translocation, as well as kinases (including MSK1) and their covalent modifications upstream of and involved in the regulation of NFkB. Antibodies against NFkB-p65 (Ab16502) were procured from Abcam Inc. (Toronto, Ontario, Canada) as a primary antibody to probe for total NFkB-p65 levels in both nuclear and cytoplasmic fractions. […]

T1 sequence (Q8C050 whole entry): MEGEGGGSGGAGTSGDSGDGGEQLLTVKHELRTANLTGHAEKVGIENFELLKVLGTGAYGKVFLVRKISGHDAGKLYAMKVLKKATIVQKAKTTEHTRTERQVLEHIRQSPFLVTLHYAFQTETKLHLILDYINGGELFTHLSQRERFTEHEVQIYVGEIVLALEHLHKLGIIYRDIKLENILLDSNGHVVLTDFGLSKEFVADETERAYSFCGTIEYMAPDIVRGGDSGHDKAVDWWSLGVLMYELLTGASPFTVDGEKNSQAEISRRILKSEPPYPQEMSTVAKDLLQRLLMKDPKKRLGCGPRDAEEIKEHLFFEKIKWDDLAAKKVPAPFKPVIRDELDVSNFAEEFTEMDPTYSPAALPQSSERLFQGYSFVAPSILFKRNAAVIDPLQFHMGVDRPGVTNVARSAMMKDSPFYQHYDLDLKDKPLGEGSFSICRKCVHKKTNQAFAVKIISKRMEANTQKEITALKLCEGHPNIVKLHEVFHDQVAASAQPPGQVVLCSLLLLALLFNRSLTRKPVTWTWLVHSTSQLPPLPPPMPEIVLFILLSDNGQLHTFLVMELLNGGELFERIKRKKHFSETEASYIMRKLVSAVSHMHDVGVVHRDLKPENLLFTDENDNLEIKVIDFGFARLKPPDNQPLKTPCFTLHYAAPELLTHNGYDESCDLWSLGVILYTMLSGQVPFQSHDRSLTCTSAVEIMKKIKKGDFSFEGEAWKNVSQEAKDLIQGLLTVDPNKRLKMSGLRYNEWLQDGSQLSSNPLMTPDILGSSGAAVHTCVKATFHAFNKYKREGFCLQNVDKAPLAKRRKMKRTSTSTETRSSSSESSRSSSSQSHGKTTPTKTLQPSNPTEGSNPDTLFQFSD

Turning to `O=C(/C=C/c1ccc(O)cc1)CC(=O)/C=C/c1ccc(O)cc1` [curcumin III, (1E,6E)-1,7-bis(4-hydroxyphenyl)hepta-1,6-diene-3,5-dione], the “inhibition of MSK1 protein levels in the cytoplasm” value on MSK1 (FIG. 7) was “significantly inhibited and downregulated”. Further, the “inhibition of MSK1 protein levels in the nucleus” value on MSK1 (FIG. 8) is “significantly inhibited and downregulated”. In the assay with NFkB-p65, the “inhibition of NFkB-p65 nucleotranslocation (cytosolic and nuclear NFkB-p65 levels)” value was “not significantly inhibited”; the “inhibition of NFkB-p65 serine 276 phosphorylation” value is “moderately inhibit”.
`COc1cc(/C=C/C(=O)CC(=O)/C=C/c2ccc(O)cc2)ccc1O` [curcumin II, (1E,6E)-1-(4-Hydroxy-3-methoxyphenyl)-7-(4-hydroxyphenyl)hepta-1,6-diene-3,5-dione]: the “inhibition of MSK1 serine 376 phosphorylation” value on MSK1 (cytoplasmic and nuclear, FIGS. 9 and 10) is “inhibit”. Also, in the assay with NFkB-p65, the “inhibition of NFkB-p65 nucleotranslocation (cytosolic and nuclear NFkB-p65 levels)” value is on record as “not significantly inhibited”; the “inhibition of NFkB-p65 serine 276 phosphorylation” value is on record as “moderately inhibit”.
For `COc1cc(/C=C/C(=O)/C=C(O)/C=C/c2ccc(O)c(OC)c2)ccc1O` [curcumin I, (1E,6E)-1,7-Bis(4-hydroxy-3-methoxyphenyl)-1,6-heptadiene-3,5-dione], in the assay with NFkB-p65, the “inhibition of NFkB-p65 nucleotranslocation (cytosolic and nuclear NFkB-p65 levels)” value is recorded as “not significantly inhibited”; the “inhibition of NFkB-p65 serine 276 phosphorylation” value is on record as “moderately inhibit”.
